Legend:
[1] = target: T1, MYLK (Homo sapiens, UniProt Q15746); assay: KinaseProfiler MYLK; assay type: biochemical; conditions: 10 μM, ATP near Km
T1 construct: purchased Millipore, Inc. (KinaseProfiler service)
Description: (§1) The compound was run in duplicate at a concentration of ATP near the Km for each individual kinase according to Millipore's specifications.

[2] = target: T2, EphA8 (Homo sapiens, UniProt P29322); assay: KinaseProfiler EphA8; assay type: biochemical; conditions: 10 μM, ATP near Km
T2 construct: purchased Millipore, Inc. (KinaseProfiler service)
Description: as §1

[3] = target: T3, BTK (Homo sapiens, UniProt Q06187); assay: KinaseProfiler BTK; assay type: biochemical; conditions: 10 μM, ATP near Km
T3 construct: purchased Millipore (KinaseProfiler service)
Description: as §1

[4] = target: T4, Bmx (Homo sapiens, UniProt P51813); assay: KinaseProfiler Bmx; assay type: biochemical; conditions: 10 μM, ATP near Km
T4 construct: purchased Millipore (KinaseProfiler service)
Description: as §1

[5] = target: T5, MKNK2 (Homo sapiens, UniProt Q9HBH9); assay: KinaseProfiler MKNK2; assay type: biochemical; conditions: 10 μM, ATP near Km
T5 construct: purchased Millipore, Inc. (KinaseProfiler service)
Description: as §1

[6] = target: T6, Plk1 (Homo sapiens, UniProt P53350); assay: KinaseProfiler Plk1; assay type: biochemical; conditions: 10 μM, ATP near Km
T6 construct: purchased Millipore, Inc. (KinaseProfiler service)
Description: as §1

[7] = target: T7, PAK5 (Homo sapiens, UniProt Q9P286); assay: KinaseProfiler PAK5; assay type: biochemical; conditions: 10 μM, ATP near Km
T7 construct: purchased Millipore, Inc. (KinaseProfiler service)
Description: as §1

[8] = target: T8, CHK1 (Homo sapiens, UniProt O14757); assay: KinaseProfiler CHK1; assay type: biochemical; conditions: 10 μM, ATP near Km
T8 construct: purchased Millipore, Inc. (KinaseProfiler service)
Description: as §1

[9] = target: T9, DCAMKL2 (Homo sapiens, UniProt Q8N568); assay: KinaseProfiler DCAMKL2; assay type: biochemical; conditions: 10 μM, ATP near Km
T9 construct: purchased Millipore, Inc. (KinaseProfiler service)
T9 sequence (Q8N568 whole entry): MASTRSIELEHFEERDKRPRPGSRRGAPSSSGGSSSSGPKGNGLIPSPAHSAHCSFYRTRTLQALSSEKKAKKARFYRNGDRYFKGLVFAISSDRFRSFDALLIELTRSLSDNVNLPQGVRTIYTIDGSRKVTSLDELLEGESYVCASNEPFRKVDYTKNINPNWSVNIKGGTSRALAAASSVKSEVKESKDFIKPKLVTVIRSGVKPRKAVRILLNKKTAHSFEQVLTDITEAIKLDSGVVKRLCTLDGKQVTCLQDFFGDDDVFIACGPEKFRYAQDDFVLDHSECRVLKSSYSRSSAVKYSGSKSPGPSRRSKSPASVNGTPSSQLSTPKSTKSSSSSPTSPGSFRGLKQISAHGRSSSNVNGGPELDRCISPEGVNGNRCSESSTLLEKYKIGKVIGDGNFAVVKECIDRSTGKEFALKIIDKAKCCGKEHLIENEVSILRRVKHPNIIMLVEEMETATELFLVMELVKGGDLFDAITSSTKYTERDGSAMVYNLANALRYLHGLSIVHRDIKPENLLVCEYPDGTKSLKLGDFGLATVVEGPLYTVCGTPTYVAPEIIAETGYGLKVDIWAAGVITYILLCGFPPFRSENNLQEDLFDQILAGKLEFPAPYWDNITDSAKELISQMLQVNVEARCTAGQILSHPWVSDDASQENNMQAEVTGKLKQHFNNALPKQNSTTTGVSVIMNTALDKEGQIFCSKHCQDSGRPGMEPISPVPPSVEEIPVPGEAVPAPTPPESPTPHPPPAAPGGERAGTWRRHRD
Description: as §1

[10] = target: T10, Abl2 (Homo sapiens, UniProt P42684); assay: KinaseProfiler Abl2; assay type: biochemical; conditions: 10 μM, ATP near Km
T10 construct: purchased Millipore (KinaseProfiler service)
Description: as §1

[11] = target: T11, PAK4 (Homo sapiens, UniProt O96013); assay: KinaseProfiler PAK4; assay type: biochemical; conditions: 10 μM, ATP near Km
T11 construct: purchased Millipore, Inc. (KinaseProfiler service)
Description: as §1

[12] = target: T12, SGK3 (Homo sapiens, UniProt Q96BR1); assay: KinaseProfiler SGK3; assay type: biochemical; conditions: 10 μM, ATP near Km
T12 construct: purchased Millipore, Inc. (KinaseProfiler service)
Description: as §1

[13] = target: T13, NEK7 (Homo sapiens, UniProt Q8TDX7); assay: KinaseProfiler NEK7; assay type: biochemical; conditions: 10 μM, ATP near Km
T13 construct: purchased Millipore, Inc. (KinaseProfiler service)
Description: as §1

[14] = target: T14, Pim-2 (Homo sapiens, UniProt Q9P1W9); assay: KinaseProfiler Pim-2; assay type: biochemical; conditions: 10 μM, ATP near Km
T14 construct: purchased Millipore, Inc. (KinaseProfiler service)
Description: as §1

[15] = target: T15, PASK (Homo sapiens, UniProt Q96RG2); assay: KinaseProfiler PASK; assay type: biochemical; conditions: 10 μM, ATP near Km
T15 construct: purchased Millipore, Inc. (KinaseProfiler service)
T15 sequence (Q96RG2 whole entry): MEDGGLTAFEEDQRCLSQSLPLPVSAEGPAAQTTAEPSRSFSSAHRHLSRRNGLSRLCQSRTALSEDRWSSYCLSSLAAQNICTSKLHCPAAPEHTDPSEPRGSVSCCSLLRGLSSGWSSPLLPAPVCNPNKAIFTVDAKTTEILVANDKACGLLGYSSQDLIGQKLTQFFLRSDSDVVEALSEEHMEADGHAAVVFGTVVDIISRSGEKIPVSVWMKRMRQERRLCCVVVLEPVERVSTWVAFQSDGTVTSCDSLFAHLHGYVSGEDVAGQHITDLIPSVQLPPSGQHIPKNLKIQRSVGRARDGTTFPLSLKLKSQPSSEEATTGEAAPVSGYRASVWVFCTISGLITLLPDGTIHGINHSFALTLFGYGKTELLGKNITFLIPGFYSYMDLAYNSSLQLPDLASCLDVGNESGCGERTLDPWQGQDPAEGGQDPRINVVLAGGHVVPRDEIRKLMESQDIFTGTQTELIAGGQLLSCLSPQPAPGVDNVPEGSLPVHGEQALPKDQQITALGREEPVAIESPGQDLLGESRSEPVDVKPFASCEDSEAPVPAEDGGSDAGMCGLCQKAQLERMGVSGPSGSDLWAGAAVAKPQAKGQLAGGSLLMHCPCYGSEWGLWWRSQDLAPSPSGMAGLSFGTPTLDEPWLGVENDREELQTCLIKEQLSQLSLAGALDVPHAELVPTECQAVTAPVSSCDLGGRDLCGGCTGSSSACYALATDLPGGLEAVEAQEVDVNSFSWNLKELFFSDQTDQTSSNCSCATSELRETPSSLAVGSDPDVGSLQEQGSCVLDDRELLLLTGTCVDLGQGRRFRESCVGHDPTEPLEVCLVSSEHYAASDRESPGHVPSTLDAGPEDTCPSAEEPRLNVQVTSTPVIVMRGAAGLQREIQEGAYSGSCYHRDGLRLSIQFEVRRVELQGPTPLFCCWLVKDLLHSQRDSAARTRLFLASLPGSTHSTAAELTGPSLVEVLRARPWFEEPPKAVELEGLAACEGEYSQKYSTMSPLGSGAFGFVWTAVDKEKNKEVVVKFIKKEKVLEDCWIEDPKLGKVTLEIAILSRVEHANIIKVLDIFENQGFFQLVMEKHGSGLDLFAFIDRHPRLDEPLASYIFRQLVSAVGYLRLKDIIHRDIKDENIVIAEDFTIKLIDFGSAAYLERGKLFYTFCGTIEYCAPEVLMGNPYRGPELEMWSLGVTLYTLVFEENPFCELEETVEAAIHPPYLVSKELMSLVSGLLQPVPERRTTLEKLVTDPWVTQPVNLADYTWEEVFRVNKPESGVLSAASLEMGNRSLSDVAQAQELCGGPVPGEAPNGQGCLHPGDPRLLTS
Description: as §1

[16] = target: T16, EphA7 (Homo sapiens, UniProt Q15375); assay: KinaseProfiler EphA7; assay type: biochemical; conditions: 10 μM, ATP near Km
T16 construct: purchased Millipore, Inc. (KinaseProfiler service)
Description: as §1

[17] = target: T17, SRPK2 (Homo sapiens, UniProt P78362); assay: KinaseProfiler SRPK2; assay type: biochemical; conditions: 10 μM, ATP near Km
T17 construct: purchased Millipore, Inc. (KinaseProfiler service)
Description: as §1

[18] = target: T18, Tie2 (Homo sapiens, UniProt Q02763); assay: KinaseProfiler Tie2; assay type: biochemical; conditions: 10 μM, ATP near Km
T18 construct: purchased Millipore, Inc. (KinaseProfiler service)
Description: as §1

[19] = target: T19, PhKgamma2 (Homo sapiens, UniProt P15735); assay: KinaseProfiler PhKgamma2; assay type: biochemical; conditions: 10 μM, ATP near Km
T19 construct: purchased Millipore, Inc. (KinaseProfiler service)
Description: as §1

[20] = target: T20, EphA4 (Homo sapiens, UniProt P54764); assay: KinaseProfiler EphA4; assay type: biochemical; conditions: 10 μM, ATP near Km
T20 construct: purchased Millipore, Inc. (KinaseProfiler service)
Description: as §1

[21] = target: T21, DAPK2 (Homo sapiens, UniProt Q9UIK4); assay: KinaseProfiler DAPK2; assay type: biochemical; conditions: 10 μM, ATP near Km
T21 construct: purchased Millipore, Inc. (KinaseProfiler service)
T21 sequence (Q9UIK4 whole entry): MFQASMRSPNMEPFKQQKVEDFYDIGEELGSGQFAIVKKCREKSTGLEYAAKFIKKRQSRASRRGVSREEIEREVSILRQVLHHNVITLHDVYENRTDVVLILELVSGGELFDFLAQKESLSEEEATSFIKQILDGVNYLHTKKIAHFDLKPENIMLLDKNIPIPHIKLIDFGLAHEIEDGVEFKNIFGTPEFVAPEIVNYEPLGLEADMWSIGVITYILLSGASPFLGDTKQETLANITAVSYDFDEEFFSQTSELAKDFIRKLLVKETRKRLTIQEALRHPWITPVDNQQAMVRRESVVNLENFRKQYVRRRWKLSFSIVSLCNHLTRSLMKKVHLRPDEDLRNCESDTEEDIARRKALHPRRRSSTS
Description: as §1

[22] = target: T22, IR Activated (Homo sapiens, UniProt P06213); assay: KinaseProfiler IR Activated; assay type: biochemical; conditions: 10 μM, ATP near Km
T22 construct: purchased Millipore, Inc. (KinaseProfiler service)
Description: as §1

[23] = target: T23, Met (Homo sapiens, UniProt P08581); assay: KinaseProfiler Met; assay type: biochemical; conditions: 10 μM, ATP near Km
T23 construct: purchased Millipore, Inc. (KinaseProfiler service)
Description: as §1

[24] = target: T24, PKAC-alpha (Homo sapiens, UniProt P17612); assay: KinaseProfiler PKAC-alpha; assay type: biochemical; conditions: 10 μM, ATP near Km
T24 construct: purchased Millipore, Inc. (KinaseProfiler service)
Description: as §1

[25] = target: T25, mTOR/FKBP12 (Homo sapiens, UniProt P42345); assay: KinaseProfiler mTOR/FKBP12; assay type: biochemical; conditions: 10 μM, ATP near Km
T25 construct: purchased Millipore, Inc. (KinaseProfiler service)
Description: as §1

[26] = target: T26, Flt1 (Homo sapiens, UniProt P17948); assay: KinaseProfiler Flt1; assay type: biochemical; conditions: 10 μM, ATP near Km
T26 construct: purchased Millipore, Inc. (KinaseProfiler service)
Description: as §1

[27] = target: T27, MAPKAP-K2 (Homo sapiens, UniProt P49137); assay: KinaseProfiler MAPKAP-K2; assay type: biochemical; conditions: 10 μM, ATP near Km
T27 construct: purchased Millipore, Inc. (KinaseProfiler service)
Description: as §1

[28] = target: T28, ULK3 (Homo sapiens, UniProt Q6PHR2); assay: KinaseProfiler ULK3; assay type: biochemical; conditions: 10 μM, ATP near Km
T28 construct: purchased Millipore, Inc. (KinaseProfiler service)
T28 sequence (Q6PHR2 whole entry): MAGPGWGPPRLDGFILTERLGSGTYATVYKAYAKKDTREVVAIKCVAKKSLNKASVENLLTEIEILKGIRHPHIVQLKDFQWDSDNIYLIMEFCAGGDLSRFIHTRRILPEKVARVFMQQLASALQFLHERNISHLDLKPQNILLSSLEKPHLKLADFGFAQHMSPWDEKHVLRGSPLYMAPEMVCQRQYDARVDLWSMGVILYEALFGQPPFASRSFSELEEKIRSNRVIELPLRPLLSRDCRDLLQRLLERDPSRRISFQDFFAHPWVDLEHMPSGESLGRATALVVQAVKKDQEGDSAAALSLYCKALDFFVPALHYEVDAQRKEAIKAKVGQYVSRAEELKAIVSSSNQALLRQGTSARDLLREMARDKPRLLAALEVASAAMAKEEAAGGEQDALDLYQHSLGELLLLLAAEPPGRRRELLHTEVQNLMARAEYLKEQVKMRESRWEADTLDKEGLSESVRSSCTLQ
Description: as §1

[29] = target: T29, SIK (Homo sapiens, UniProt P57059); assay: KinaseProfiler SIK; assay type: biochemical; conditions: 10 μM, ATP near Km
T29 construct: purchased Millipore, Inc. (KinaseProfiler service)
T29 sequence (P57059 whole entry): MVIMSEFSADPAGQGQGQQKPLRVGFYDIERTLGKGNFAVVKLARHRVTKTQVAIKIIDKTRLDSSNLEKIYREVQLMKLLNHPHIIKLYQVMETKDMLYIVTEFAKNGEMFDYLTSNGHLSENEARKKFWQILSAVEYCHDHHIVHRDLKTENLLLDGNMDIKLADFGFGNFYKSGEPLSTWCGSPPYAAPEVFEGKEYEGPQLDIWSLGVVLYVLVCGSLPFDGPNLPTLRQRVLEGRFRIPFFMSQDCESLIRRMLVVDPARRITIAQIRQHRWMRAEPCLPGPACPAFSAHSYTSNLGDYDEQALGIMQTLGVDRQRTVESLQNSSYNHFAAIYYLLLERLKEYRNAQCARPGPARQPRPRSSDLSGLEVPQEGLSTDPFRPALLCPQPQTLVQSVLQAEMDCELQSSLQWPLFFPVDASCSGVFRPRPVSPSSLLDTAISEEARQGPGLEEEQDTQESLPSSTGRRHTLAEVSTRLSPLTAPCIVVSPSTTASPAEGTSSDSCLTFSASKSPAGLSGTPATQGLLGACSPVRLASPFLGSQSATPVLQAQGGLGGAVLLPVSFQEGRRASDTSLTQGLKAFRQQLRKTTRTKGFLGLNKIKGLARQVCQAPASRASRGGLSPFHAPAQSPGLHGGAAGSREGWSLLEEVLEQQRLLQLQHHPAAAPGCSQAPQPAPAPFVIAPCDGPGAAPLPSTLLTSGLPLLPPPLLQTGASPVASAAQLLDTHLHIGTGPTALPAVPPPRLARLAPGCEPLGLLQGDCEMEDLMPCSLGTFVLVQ
Description: as §1

[30] = target: T30, ITK (Homo sapiens, UniProt Q08881); assay: KinaseProfiler ITK; assay type: biochemical; conditions: 10 μM, ATP near Km
T30 construct: purchased Millipore, Inc. (KinaseProfiler service)
Description: as §1

[31] = target: T31, PKCtheta (Homo sapiens, UniProt Q04759); assay: KinaseProfiler PKCtheta; assay type: biochemical; conditions: 10 μM, ATP near Km
T31 construct: purchased Millipore, Inc. (KinaseProfiler service)
Description: as §1

[32] = target: T32, CAMK2g (Homo sapiens, UniProt Q13555); assay: KinaseProfiler CAMK2g; assay type: biochemical; conditions: 10 μM, ATP near Km
T32 construct: purchased Millipore (KinaseProfiler service)
Description: as §1

[33] = target: T33, Rsk1 (Homo sapiens, UniProt Q15418); assay: KinaseProfiler Rsk1; assay type: biochemical; conditions: 10 μM, ATP near Km
T33 construct: purchased Millipore, Inc. (KinaseProfiler service)
Description: as §1

[34] = target: T34, MLK1 (Homo sapiens, UniProt P80192); assay: KinaseProfiler MLK1; assay type: biochemical; conditions: 10 μM, ATP near Km
T34 construct: purchased Millipore, Inc. (KinaseProfiler service)
Description: as §1

[35] = target: T35, ERK1 (Homo sapiens, UniProt P27361); assay: KinaseProfiler ERK1; assay type: biochemical; conditions: 10 μM, ATP near Km
T35 construct: purchased Millipore, Inc. (KinaseProfiler service)
Description: as §1

[36] = target: T36, DRAK1 (Homo sapiens, UniProt Q9UEE5); assay: KinaseProfiler DRAK1; assay type: biochemical; conditions: 10 μM, ATP near Km
T36 construct: purchased Millipore, Inc. (KinaseProfiler service)
Description: as §1

[37] = target: T37, PDGFRbeta (Homo sapiens, UniProt P09619); assay: KinaseProfiler PDGFRbeta; assay type: biochemical; conditions: 10 μM, ATP near Km
T37 construct: purchased Millipore, Inc. (KinaseProfiler service)
Description: as §1

[38] = target: T38, AKT3 (Homo sapiens, UniProt Q9Y243); assay: KinaseProfiler AKT3; assay type: biochemical; conditions: 10 μM, ATP near Km
T38 construct: purchased Millipore (KinaseProfiler service)
Description: as §1

[39] = test system: off-target kinases; conditions: 10 μM
Description: as §1

[40] = target: T39, PKCzeta (Homo sapiens, UniProt Q05513); assay: KinaseProfiler PKCzeta; assay type: biochemical; conditions: 10 μM, ATP near Km
T39 construct: purchased Millipore, Inc. (KinaseProfiler service)
Description: as §1

[41] = target: T40, Plk2 (Homo sapiens, UniProt Q9NYY3); assay: KinaseProfiler Plk2; assay type: biochemical; conditions: 10 μM, ATP near Km
T40 construct: purchased Millipore, Inc. (KinaseProfiler service)
T40 sequence (Q9NYY3 whole entry): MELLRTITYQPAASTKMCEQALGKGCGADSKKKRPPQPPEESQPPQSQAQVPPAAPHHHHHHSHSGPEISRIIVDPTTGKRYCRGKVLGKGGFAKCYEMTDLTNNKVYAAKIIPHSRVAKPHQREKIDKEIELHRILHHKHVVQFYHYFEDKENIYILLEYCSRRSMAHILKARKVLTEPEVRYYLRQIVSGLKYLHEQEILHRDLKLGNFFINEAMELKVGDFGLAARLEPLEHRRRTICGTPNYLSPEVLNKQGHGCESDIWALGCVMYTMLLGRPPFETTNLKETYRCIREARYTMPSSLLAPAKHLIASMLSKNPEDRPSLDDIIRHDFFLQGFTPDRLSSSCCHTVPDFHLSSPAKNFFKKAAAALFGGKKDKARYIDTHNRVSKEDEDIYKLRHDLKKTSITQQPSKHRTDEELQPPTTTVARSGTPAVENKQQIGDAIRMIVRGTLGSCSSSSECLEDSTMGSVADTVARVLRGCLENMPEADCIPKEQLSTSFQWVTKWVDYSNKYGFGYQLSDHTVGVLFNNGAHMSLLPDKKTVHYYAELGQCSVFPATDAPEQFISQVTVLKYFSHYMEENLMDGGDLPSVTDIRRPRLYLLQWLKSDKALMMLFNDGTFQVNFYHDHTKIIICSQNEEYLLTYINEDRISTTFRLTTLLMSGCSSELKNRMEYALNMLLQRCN
Description: as §1

[42] = target: T41, CDK2/cyclinA (Homo sapiens, UniProt P24941); assay: KinaseProfiler CDK2/cyclinA; assay type: biochemical; conditions: 10 μM, ATP near Km
T41 construct: purchased Millipore, Inc. (KinaseProfiler service)
Description: as §1

[43] = target: T42, GRK5 (Homo sapiens, UniProt P34947); assay: KinaseProfiler GRK5; assay type: biochemical; conditions: 10 μM, ATP near Km
T42 construct: purchased Millipore, Inc. (KinaseProfiler service)
T42 sequence (P34947 whole entry): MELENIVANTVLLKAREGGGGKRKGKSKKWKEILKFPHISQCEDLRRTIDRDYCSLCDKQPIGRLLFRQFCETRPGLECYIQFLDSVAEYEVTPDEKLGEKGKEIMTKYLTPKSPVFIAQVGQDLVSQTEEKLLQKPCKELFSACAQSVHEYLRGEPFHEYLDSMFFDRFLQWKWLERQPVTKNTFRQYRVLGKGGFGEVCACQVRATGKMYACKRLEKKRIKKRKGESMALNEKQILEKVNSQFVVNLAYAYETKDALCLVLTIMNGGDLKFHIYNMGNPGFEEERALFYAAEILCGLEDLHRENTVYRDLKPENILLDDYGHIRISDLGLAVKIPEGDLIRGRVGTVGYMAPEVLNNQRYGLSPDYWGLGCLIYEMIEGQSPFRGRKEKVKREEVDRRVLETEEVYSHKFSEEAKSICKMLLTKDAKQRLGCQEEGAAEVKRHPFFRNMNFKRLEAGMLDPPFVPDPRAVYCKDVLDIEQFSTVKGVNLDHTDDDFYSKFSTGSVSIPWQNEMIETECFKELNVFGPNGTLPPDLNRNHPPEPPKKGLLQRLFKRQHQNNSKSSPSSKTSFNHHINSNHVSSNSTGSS
Description: as §1

With `Cc1c(-c2cnn(C)c2)nn(-c2ccccc2)c1NC(=O)Nc1cc(C(F)(F)F)nn1-c1ccccc1` [Example 3, 1-(1′,4-dimethyl-1-phenyl-1H,1′H-[3,4′-bipyrazol]-5-yl)-3-(1-phenyl-3-(trifluoromethyl)-1H-pyrazol-5-yl)urea] the “Avg POC” value [1] was 122 POC, the “Avg POC” value [2] was 122 POC and the “Avg POC” value [3] was 123 POC. The “Avg POC” value [4] was 114.5 POC, the “Avg POC” value [5] was 99 POC and the “Avg POC” value [6] was 95 POC. The “Avg POC” value [7] was 145.5 POC, the “Avg POC” value [8] was 108 POC and the “Avg POC” value [9] was 222.5 POC. For the same compound, the “Avg POC” value [10] was 148.5 POC, the “Avg POC” value [11] was 103 POC and the “Avg POC” value [12] was 133 POC. For the same compound, the “Avg POC” value [13] was 118 POC, the “Avg POC” value [14] was 117.5 POC and the “Avg POC” value [15] was 147 POC. The “Avg POC” value [16] was 91 POC, the “Avg POC” value [17] was 112.5 POC and the “Avg POC” value [18] was 121.5 POC. For the same compound, the “Avg POC” value [19] was 115.5 POC, the “Avg POC” value [20] was 106.5 POC and the “Avg POC” value [21] was 106 POC. For the same compound, the “Avg POC” value [22] was 99.5 POC, the “Avg POC” value [23] was 129 POC and the “Avg POC” value [24] was 136.5 POC. For the same compound, the “Avg POC” value [25] was 92.5 POC, the “Avg POC” value [26] was 91.5 POC and the “Avg POC” value [27] was 142.5 POC. The “Avg POC” value [28] was 90.5 POC, the “Avg POC” value [29] was 154.5 POC and the “Avg POC” value [30] was 128 POC. For the same compound, the “Avg POC” value [31] was 113.5 POC, the “Avg POC” value [32] was 112 POC and the “Avg POC” value [33] was 123 POC. The “Avg POC” value [34] was 100.5 POC, the “Avg POC” value [35] was 111.5 POC and the “Avg POC” value [36] was 129 POC. The “Avg POC” value [37] was 175 POC, the “Avg POC” value [38] was 99 POC and the “activity against off-target kinases” value [39] was “largely inactive”. For the same compound, the “Avg POC” value [40] was 103 POC, the “Avg POC” value [41] was 106 POC and the “Avg POC” value [42] was 100.5 POC. The “Avg POC” value [43] was 84 POC.

— patent US9809578B2, “Pyrazolyl urea, thiourea, guanidine and cyanoguanidine compounds as trkA kinase inhibitors” (Array BioPharma Inc., priority 2012, dated 2017)
